Calls of active or inactive are those of the source.
Columns and labels:
Klebsiella pneumoniae = experiment: Antibacterial activity against Klebsiella pneumoniae ATCC 700603 assessed as bacterial growth inhibition incubated for 18 hrs by broth microdilution method; format: functional
Bacillus subtilis = experiment: Antibacterial activity against Bacillus subtilis ATCC 23857 assessed as bacterial growth inhibition incubated for 18 hrs by broth microdilution method; format: functional
[1] = Cytotoxicity against human HEK293T cells assessed as inhibition of cell growth incubated for 24 hrs by resazurin dye based analysis; format: toxicity, HEK-293T
Escherichia coli [2] = experiment: Antibacterial activity against Escherichia coli ATCC 25922 assessed as fold increase in MIC in presence of KCl; format: functional
Escherichia coli [3] = experiment: Antibacterial activity against Escherichia coli ATCC 25922 assessed as fold increase in MIC in presence of FeCl3; format: functional
Staphylococcus aureus [4] = experiment: Antibacterial activity against Staphylococcus aureus ATCC 25923 assessed as fold increase in MIC in presence of NaCl; format: functional
Staphylococcus aureus [5] = experiment: Antibacterial activity against Staphylococcus aureus ATCC 25923 assessed as fold increase in MIC in presence of KCl; format: functional
Staphylococcus aureus [6] = experiment: Antibacterial activity against Staphylococcus aureus ATCC 25923 assessed as fold increase in MIC in presence of MgCl2; format: functional
Staphylococcus aureus [7] = experiment: Antibacterial activity against Staphylococcus aureus ATCC 25923 assessed as fold increase in MIC in presence of ZnCl2; format: functional
Staphylococcus aureus [8] = experiment: Antibacterial activity against Staphylococcus aureus ATCC 25923 assessed as fold increase in MIC in presence of FeCl3; format: functional
Escherichia coli [9] = experiment: Antibacterial activity against Escherichia coli ATCC 25922 in presence of 10% mouse serum measured for 6 hrs; format: functional, organism-based
Staphylococcus aureus [10] = experiment: Antibacterial activity against Staphylococcus aureus ATCC 25923 in presence of 10% mouse serum measured for 6 hrs; format: functional, organism-based
Escherichia coli [11] = experiment: Antimicrobial activity against Escherichia coli ATCC 25922 assessed as reduction in survival bacterial growth in presence of trypsin measured after 6 hrs; format: functional, organism-based
Escherichia coli [12] = experiment: Inhibition of biofilm formation in Escherichia coli ATCC 25922 assessed as inhibition of biofilm formation at 1/4 times MIC incubated for 24 hrs by crystal violet staining based analysis; format: functional, organism-based
Escherichia coli [13] = experiment: Inhibition of biofilm formation in Escherichia coli ATCC 25922 assessed as inhibition of biofilm formation at 1/2 times MIC incubated for 24 hrs by crystal violet staining based analysis; format: functional, organism-based
Staphylococcus aureus [14] = experiment: Inhibition of biofilm formation in Staphylococcus aureus ATCC 25923 assessed as inhibition of biofilm formation at 1/4 times MIC incubated for 24 hrs by crystal violet staining based analysis; format: functional, organism-based
Staphylococcus aureus [15] = experiment: Inhibition of biofilm formation in Staphylococcus aureus ATCC 25923 assessed as inhibition of biofilm formation at 1 times MIC incubated for 24 hrs by crystal violet staining based analysis; format: functional, organism-based
Staphylococcus aureus [16] = experiment: Inhibition of biofilm formation in Staphylococcus aureus ATCC 25923 assessed as inhibition of biofilm formation at 2 times MIC incubated for 24 hrs by crystal violet staining based analysis; format: functional, organism-based
Escherichia coli [17] = experiment: Antibiofilm activity against Escherichia coli ATCC 25922 assessed as biofilm eradication at 1 times MIC incubated for 24 hrs; format: functional, organism-based
Escherichia coli [18] = experiment: Antibiofilm activity against Escherichia coli ATCC 25922 assessed as biofilm eradication at 2 times MIC incubated for 24 hrs; format: functional, organism-based
Escherichia coli [19] = experiment: Antibiofilm activity against Escherichia coli ATCC 25922 assessed as biofilm eradication at 4 times MIC incubated for 24 hrs; format: functional, organism-based
Staphylococcus aureus [20] = experiment: Antibiofilm activity against Staphylococcus aureus ATCC 25923 assessed as biofilm eradication at 1 times MIC incubated for 24 hrs; format: functional, organism-based
Staphylococcus aureus [21] = experiment: Antibiofilm activity against Staphylococcus aureus ATCC 25923 assessed as biofilm eradication at 2 times MIC incubated for 24 hrs; format: functional, organism-based
Staphylococcus aureus [22] = experiment: Antibiofilm activity against Staphylococcus aureus ATCC 25923 assessed as biofilm eradication at 4 times MIC incubated for 24 hrs; format: functional, organism-based
Staphylococcus aureus [23] = experiment: Antibiofilm activity against Staphylococcus aureus ATCC 25923 assessed as biofilm eradication at 8 times MIC incubated for 24 hrs; format: functional, organism-based
Escherichia coli [24] = experiment: Induction of drug resistance against Escherichia coli ATCC 25922 assessed as fold increase in MIC measured upto 15 passages by sequential passaging method; format: functional
Staphylococcus aureus [25] = experiment: Induction of drug resistance against Staphylococcus aureus ATCC 25923 measured upto 15 passages by sequential passaging method; format: functional
Escherichia coli [26] = experiment: Bactericidal activity against Escherichia coli ATCC 25922 assessed as inhibition of bacterial growth incubated upto 360 mins by time-kill assay; format: functional, organism-based
Escherichia coli [27] = experiment: Bactericidal activity against Escherichia coli ATCC 25922 assessed as inhibition of bacterial growth at 2 times MIC measured upto 360 mins by time-kill assay; format: functional, organism-based
Staphylococcus aureus [28] = experiment: Bactericidal activity against Staphylococcus aureus ATCC 25923 assessed as inhibition of bacterial growth at 0.5 to 2 times MIC by time-kill assay; format: functional, organism-based; conditions: time <= 360.0 min, TDE = time-dependent effect
Staphylococcus aureus [29] = experiment: Bactericidal activity against Staphylococcus aureus ATCC 25923 assessed as inhibition of bacterial growth incubated upto 360 mins by time-kill assay; format: functional, organism-based
Staphylococcus aureus [30] = experiment: Bactericidal activity against Staphylococcus aureus ATCC 25923 assessed as inhibition of bacterial growth at 1 times MIC measured upto 360 mins by time-kill assay; format: functional, organism-based
Escherichia coli [31] = experiment: Antimicrobial activity against Escherichia coli ATCC 25922 assessed as reduction in microbial growth measured for 18 hrs in presence of 512 microg/ml LPS; format: functional, organism-based
Cell membrane [32] = experiment: Induction of outer membrane permeabilization in Escherichia coli ATCC 25922 assessed as increase in fluorescence intensity at 2 times MIC measured for 12 hrs by NPN uptake assay; format: subcellular
Cell membrane [33] = experiment: Induction of outer membrane permeabilization in Escherichia coli ATCC 25922 assessed as increase in fluorescence intensity at 4 times MIC measured for 12 hrs by NPN uptake assay; format: subcellular
Cell membrane [34] = experiment: Induction of inner membrane permeabilization in Escherichia coli ML-35 ATCC 43837 assessed as increase in fluorescence intensity at 1 to 4 times MIC incubated upto 150 mins by ONPG staining based analysis; format: subcellular
Cell membrane [35] = experiment: Induction of cell membrane damage in Staphylococcus aureus ATCC 25923 at 2 times MIC after 0.5 to 2 hrs by propidium iodide staining based flow cytometer assay; format: subcellular; conditions: time 0.5-2 hrs
Cell membrane [36] = experiment: Induction of cell membrane damage in Staphylococcus aureus ATCC 25923 at 2 times MIC measured at 30 mins by propidium iodide staining based flow cytometer assay; format: subcellular
Escherichia coli [37] = experiment: Induction of membrane morphological changes in Escherichia coli ATCC 25922 at 4 times MIC measured at 0.5 to 2 hrs by SEM analysis; format: functional, organism-based; conditions: time 0.5-2 hrs
Staphylococcus aureus [38] = experiment: Induction of membrane morphological changes in Staphylococcus aureus ATCC 25923 at 4 times MIC measured at 0.5 to 2 hrs by SEM analysis; format: functional, organism-based; conditions: time 0.5-2 hrs
Staphylococcus aureus [39] = experiment: Induction of membrane morphological changes in Staphylococcus aureus ATCC 25923 assessed as appearance of broken bacterial cells at 4 times MIC measured at 0.5 to 2 hrs by SEM analysis; format: functional, organism-based; conditions: time 0.5-2 hrs
Staphylococcus aureus [40] = experiment: Induction of membrane morphological changes in Staphylococcus aureus ATCC 25923 assessed as appearance of blistered bacterial cells at 4 times MIC measured at 0.5 to 2 hrs by SEM analysis; format: functional, organism-based; conditions: time 0.5-2 hrs

CCCCCCCC(=O)N[C@@H](CCN)C(=O)N[C@H](C(=O)N[C@@H](CCN)C(=O)N[C@H](Cc1ccccc1)C(=O)N[C@@H](CC(C)C)C(=O)N[C@@H](CCN)C(=O)N[C@@H](C(=O)N[C@@H](CC(C)C)C(=O)N[C@@H](Cc1ccc(O)cc1)C(N)=O)C(C)C)[C@@H](C)CC
active: Activity (Escherichia coli [9]) | Activity (Staphylococcus aureus [10]) | Activity (Escherichia coli [11]) | inhibition (Staphylococcus aureus [14]) | inhibition (Staphylococcus aureus [15]) | inhibition (Staphylococcus aureus [16]) | Activity (Escherichia coli [17]) | Activity (Escherichia coli [18]) | Activity (Escherichia coli [19]) | Activity (Staphylococcus aureus [21]) | Activity (Staphylococcus aureus [22]) | Activity (Staphylococcus aureus [23]) | Activity (Staphylococcus aureus [25]) | Activity (Escherichia coli [26]) Dose-Dependent Effect | Activity (Escherichia coli [27]) | Activity (Staphylococcus aureus [28]) Tde | Activity (Staphylococcus aureus [29]) Dose-Dependent Effect | Activity (Cell membrane [33]) | Activity (Cell membrane [34]) | Activity (Cell membrane [35]) | Activity (Escherichia coli [37]) | Activity (Staphylococcus aureus [38]) | Activity (Staphylococcus aureus [39]) | Activity (Staphylococcus aureus [40])
<=2: fold change (FC) (Escherichia coli [2]) | fold change (FC) (Escherichia coli [3]) | fold change (FC) (Staphylococcus aureus [4]) | fold change (FC) (Staphylococcus aureus [5]) | fold change (FC) (Staphylococcus aureus [6]) | fold change (FC) (Staphylococcus aureus [7]) | fold change (FC) (Staphylococcus aureus [8])
inactive: inhibition (Escherichia coli [12]) | inhibition (Escherichia coli [13]) | Activity (Staphylococcus aureus [20]) | Activity (Staphylococcus aureus [30]) | Activity (Escherichia coli [31]) | Activity (Cell membrane [32]) | Activity (Cell membrane [36])
24.2 µg/mL: IC50 at 24 h [1]
8 µg/mL: MIC (Klebsiella pneumoniae)
64: fold change (FC) (Escherichia coli [24])
2 µg/mL: MIC (Bacillus subtilis)
